Read-outs that look alike come from different tables or passages of the source. Bounds are passed on as bounds.

One assay deals with LSD1 (Homo sapiens, UniProt O60341). Briefly: LSD1 fluorescence coupling enzyme assay (HRP/Amplex Red, H3(1-21)K4me2 peptide), 10-dose IC50. The settings on record: 10 μM histone H3(1-21)K4me2 peptide substrate, 3-fold serial dilution from 100 μM. Type of assay: biochemical. The essentials: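 Fluorescence coupled assay: LSD1 demethylation of 10 μM H3(1-21)K4me2 peptide produces FAD-dependent H2O2, detected via HRP/Amplex Red as resorufin (Ex/Em 535/590 nm). IC50 from 10 doses, 3-fold serial dilution from 100 μM, in duplicate.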

For another assay, the system named is MV4;11 cells. The assay is described as follows: Cell Titer-Glo cell growth inhibition in MV4;11 cell line (Day 5 / Day 10). It is filed as cell-based. The essentials:
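Cells seeded at 3750/well and treated with a 10-point, 4-fold dose curve from 0 to 50 µM; ATP-based luminescence viability read at Day 5. A portion is reseeded into fresh compound and media for 5 more days, read at Day 10; IC50 derived from luminescence.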
(Cellular ATP, detected with luciferase, serves as a proxy for viable cell number.)

Where [1] appears, read: Homo sapiens, MV4-11, 240 h, Day 10, read-out: Cell Titer-Glo IC50 (10 d).
Setting [2] is: Homo sapiens, MV4-11, 120 h, Day 5, read-out: Cell Titer-Glo IC50 (5 d).
The mark [3] stands for this setting: Day 5, read-out: Cell Titer-Glo IC50 (5 d).

For orientation: IC50 means the concentration that gives 50% inhibition. As to `COc1ccc(-n2nc(N3CCCC4CCCCC43)cc2-c2ccc(C#N)c(F)c2)cc1` (stereo not shown) [Example 82, 2-fluoro-4-(1-(4-methoxyphenyl)-3-(octahydroquinolin-1(2H)-yl)-1H-pyrazol-5-yl)benzonitrile], the values for the IC50 against LSD1 and with MV4;11 cells (setting [1]) were 1000 to 10000 nM and above 10000 nM, respectively.

Regarding `N#Cc1ccc(-c2cc(NC[C@H]3CCC[C@H](N)C3)nn2-c2ccc(-c3cn[nH]c3)cc2)cc1F` [Example 52, 4-(1-(4-(1H-pyrazol-4-yl)phenyl)-3-((((1S,3S)-3-aminocyclohexyl)methyl)amino)-1H-pyrazol-5-yl)-2-fluorobenzonitrile], the half-inhibitory concentration (IC50) against LSD1, with MV4;11 cells (setting [2]) and with MV4;11 cells (setting [1]) was below 500 nM each time.

On to `COc1ccc(-n2nc(NCC3CCCC(CN)C3)cc2-c2ccc(C#N)c(F)c2)cc1` (stereo not shown) [Example 28, 4-(3-(((-3-(aminomethyl)cyclohexyl)methyl)amino)-1-(4-methoxyphenyl)-1H-pyrazol-5-yl)-2-fluorobenzonitrile], for which the IC50 fell in the range of 500 to 1000 nM on LSD1, 1000 to 10000 nM in the assay on MV4;11 cells (setting [2]) and 1000 to 10000 nM with MV4;11 cells (setting [1]).

With `Cn1ccc2cc(-n3nc(NCC4CCC[C@H](N)C4)cc3-c3ccc(C#N)c(F)c3)ccc21` (stereo partly drawn) [Example 66, 4-(3-((((1,3S)-3-aminocyclohexyl)methyl)amino)-1-(1-methyl-1H-indol-5-yl)-1H-pyrazol-5-yl)-2-fluorobenzonitrile], the half-maximal inhibitory concentration (IC50) at LSD1, in the assay with MV4;11 cells (setting [2]) and in the assay on MV4;11 cells (setting [1]) was below 500 nM each time.

Regarding `N#Cc1ccc(-c2cc(NCC3CCCNCC3)nn2-c2ccc(C(=O)N3CCCC3)cc2)cc1F` (stereo not shown) [Example 25, 4-(3-((azepan-4-ylmethyl)amino)-1-(4-(pyrrolidine-1-carbonyl)phenyl)-1H-pyrazol-5-yl)-2-fluorobenzonitrile], the IC50 on LSD1 was 1000 to 10000 nM; with MV4;11 cells (setting [2]), 500 to 1000 nM; in the assay with MV4;11 cells (setting [1]), below 500 nM.

On to “4-(3-(4-aminopiperidin-1-yl)-1-(p-tolyl)-1H-pyrazol-5-yl)-2-fluorobenzonitrile/4-(5-(4-aminopiperidin-1-yl)-1-(p-tolyl)-1H-pyrazol-3-yl)-2-fluorobenzonitrile [Example 34]”, for which the figures for the half-maximal inhibitory concentration (IC50) at LSD1 and in the assay with MV4;11 cells (setting [3]) were below 500 nM and 1000 to 10000 nM, respectively.

Consider `COc1ccc(-n2nc(NCC3CC[C@@H](N)C3)cc2-c2ccc(C#N)c(F)c2)cc1` (mixture of isomers) [Example 4, rac-4-(3-((((1S,3R)-3-aminocyclopentyl)methyl)amino)-1-(4-methoxyphenyl)-1H-pyrazol-5-yl)-2-fluorobenzonitrile], for which the figures for the half-maximal inhibitory concentration (IC50) at LSD1 and in the assay on MV4;11 cells (setting [2]) were below 500 nM and 1000 to 10000 nM, respectively.

`Cn1cc2cc(-n3nc(NC[C@@H]4CCNC4)cc3-c3ccc(C#N)c(F)c3)ccc2n1` [Example 21R, (R)-2-fluoro-4-(1-(2-methyl-2H-indazol-5-yl)-3-((pyrrolidin-3-ylmethyl)amino)-1H-pyrazol-5-yl)benzonitrile]: the IC50 at LSD1 and with MV4;11 cells (setting [2]) was 500 to 1000 nM each time.

On to `N#Cc1ccc(-c2cc(NC[C@H]3CCCNCC3)nn2-c2ccc(C(=O)N3CCCC3)cc2)cc1F` (single isomer, unassigned) [Example 25b], for which the IC50 against LSD1 is below 500 nM; in the assay on MV4;11 cells (setting [2]), 1000 to 10000 nM; in the assay with MV4;11 cells (setting [1]) it was below 500 nM.

As for `COc1ccc(-n2nc(NC[C@H]3CC[C@@H](N)C3)cc2-c2ccc(C#N)c(F)c2)cc1` (single isomer, unassigned) [Example 4a], the IC50 against LSD1 and with MV4;11 cells (setting [2]) was below 500 nM in each case.

On to `N#Cc1ccc(-c2cc(NC[C@H]3CCC[C@H](N)C3)nn2-c2cccc(-c3cnn(CCO)c3)c2)cc1F` [Example 57, 4-(3-((((1S,3S)-3-aminocyclohexyl)methyl)amino)-1-(3-(1-(2-hydroxyethyl)-1H-pyrazol-4-yl)phenyl)-1H-pyrazol-5-yl)-2-fluorobenzonitrile], for which the 50% inhibitory concentration (IC50) on LSD1 is below 500 nM; in the assay with MV4;11 cells (setting [2]), 1000 to 10000 nM; with MV4;11 cells (setting [1]), below 500 nM.

`COc1ccc(-n2nc(NCC3CCNC3)cc2-c2ccc(C#N)c(F)c2)cc1` (stereo not shown) [Example 8, 2-fluoro-4-(1-(4-methoxyphenyl)-3-((pyrrolidin-3-ylmethyl)amino)-1H-pyrazol-5-yl)benzonitrile]: the 50% inhibitory concentration (IC50) against LSD1 and in the assay with MV4;11 cells (setting [2]) was below 500 nM in each case.

Regarding `COc1ccc(-n2nc(NC[C@@H]3CCC[C@H](N)C3)cc2-c2ccc(C#N)c(F)c2)cc1` (single isomer, unassigned) [Example 5b], the IC50 against LSD1 and in the assay with MV4;11 cells (setting [2]) was below 500 nM each time.

Consider `Cn1ncc2cc(-n3nc(NCC45CCN(CC4)CC5)cc3-c3ccc(C#N)c(F)c3)ccc21` [Example 23, 2-fluoro-4-(1-(1-methyl-1H-indazol-5-yl)-3-((quinuclidin-4-ylmethyl)amino)-1H-pyrazol-5-yl)benzonitrile], for which the IC50 at LSD1 is below 500 nM; in the assay on MV4;11 cells (Homo sapiens, 120 h, Day 5, read-out: Cell Titer-Glo IC50 (5 d)), below 500 nM; in the assay on MV4;11 cells (Homo sapiens, 240 h, Day 10, read-out: Cell Titer-Glo IC50 (10 d)), below 500 nM.

With `CC(C)n1cc2cc(-n3nc(NC[C@@H]4CCC[C@@H](N)C4)cc3-c3ccc(C#N)c(F)c3)ccc2n1` [Example 72, 4-(3-((((1R,3R)-3-aminocyclohexyl)methyl)amino)-1-(2-isopropyl-2H-indazol-5-yl)-1H-pyrazol-5-yl)-2-fluorobenzonitrile], the results for the half-inhibitory concentration (IC50) at LSD1, in the assay on MV4;11 cells (setting [2]) and in the assay with MV4;11 cells (setting [1]) were 1000 to 10000 nM, 500 to 1000 nM and below 500 nM, respectively.

For the compound `COc1ccc(-n2nc(NC[C@@H]3CC[C@H](N)C3)cc2-c2ccc(C#N)c(F)c2)cc1` (single isomer, unassigned) [Example 4b], the results for the half-maximal inhibitory concentration (IC50) against LSD1 and in the assay with MV4;11 cells (setting [2]) were below 500 nM and 500 to 1000 nM, respectively.

For the compound `N#Cc1ccc(-c2cc(NC[C@H]3CCC[C@H](N)C3)nn2-c2ccncc2)cc1F` [Example 17, 4-(3-((((1S,3S)-3-aminocyclohexyl)methyl)amino)-1-(pyridin-4-yl)-1H-pyrazol-5-yl)-2-fluorobenzonitrile], the IC50 against LSD1 was above 10000 nM; in the assay with MV4;11 cells (setting [2]) it was 1000 to 10000 nM; in the assay on MV4;11 cells (setting [1]), 1000 to 10000 nM.

Take `CS(=O)(=O)N1CCN(c2cccc(-n3nc(NC[C@H]4CCC[C@H](N)C4)cc3-c3ccc(C#N)c(F)c3)c2)CC1` [Example 49, 4-(3-((((1S,3S)-3-aminocyclohexyl)methyl)amino)-1-(3-(4-(methylsulfonyl)piperazin-1-yl)phenyl)-1H-pyrazol-5-yl)-2-fluorobenzonitrile]: the concentration for half-maximal inhibition (IC50) on LSD1 was 1000 to 10000 nM; in the assay with MV4;11 cells (setting [2]), 1000 to 10000 nM; with MV4;11 cells (setting [1]), below 500 nM.

`Cn1ncc2cc(-n3nc(NC[C@H]4CCC[C@H](N)C4)cc3-c3ccc(C#N)c(F)c3)ccc21` (single isomer, unassigned) [Example 7c]: the half-inhibitory concentration (IC50) at LSD1, in the assay with MV4;11 cells (setting [2]) and in the assay with MV4;11 cells (setting [1]) was below 500 nM throughout.

In the case of `N#Cc1ccc(-c2cc(NC[C@H]3CCC[C@H](N)C3)nn2-c2ccc(C(=O)N3CCCC3)cc2)cc1F` [Example 63, 4-(3-((((1S,3S)-3-aminocyclohexyl)methyl)amino)-1-(4-(pyrrolidine-1-carbonyl)phenyl)-1H-pyrazol-5-yl)-2-fluorobenzonitrile], the IC50 on LSD1, in the assay on MV4;11 cells (setting [2]) and in the assay on MV4;11 cells (setting [1]) was below 500 nM in each case.

As for `COc1ccc(-n2nc(NC[C@@H]3CCC[C@@H](N)C3)cc2-c2ccc(C#N)c(F)c2)cc1` [Example 11RR, 4-(3-((((1R,3R)-3-aminocyclohexyl)methyl)amino)-1-(4-methoxyphenyl)-1H-pyrazol-5-yl)-2-fluorobenzonitrile], the IC50 against LSD1 was in the range of 500 to 1000 nM; in the assay with MV4;11 cells (setting [2]), 1000 to 10000 nM.

Take `COc1ccc(-n2nc(NCC3CCNCC3)cc2-c2ccc(C#N)c(F)c2)cc1` [Example 2, 2-Fluoro-4-(1-(4-methoxyphenyl)-3-((piperidin-4-ylmethyl)amino)-1H-pyrazol-5-yl)benzonitrile]: the IC50 on LSD1 and in the assay on MV4;11 cells (setting [2]) was below 500 nM in each case.

With `Cn1nc2ccc(-n3nc(NC[C@H]4CCC[C@H](N)C4)cc3-c3ccc(C#N)c(F)c3)cc2n1` [Example 69, 4-(3-((((15,3S)-3-aminocyclohexyl)methyl)amino)-1-(2-methyl-2H-benzo[d][1,2,3]triazol-5-yl)-1H-pyrazol-5-yl)-2-fluorobenzonitrile], the IC50 at LSD1 and in the assay with MV4;11 cells (setting [1]) was below 500 nM in each case.

As for “(S)-4-(3-(3-aminopiperidin-1-yl)-1-(p-tolyl)-1H-pyrazol-5-yl)-2-fluorobenzonitrile/(S)-4-(5-(3-aminopiperidin-1-yl)-1-(p-tolyl)-1H-pyrazol-3-yl)-2-fluorobenzonitrile [Example 39]”, the IC50 was below 500 nM at LSD1 and 1000 to 10000 nM in the assay on MV4;11 cells (setting [3]).

For the compound `Cn1nc2ccc(-n3nc(NC[C@@H]4CCC[C@@H](N)C4)cc3-c3ccc(C#N)c(F)c3)cc2c1Cl` [Example 14RR, 4-(3-((((1R,3R)-3-aminocyclohexyl)methyl)amino)-1-(3-chloro-2-methyl-2H-indazol-5-yl)-1H-pyrazol-5-yl)-2-fluorobenzonitrile], the IC50 on LSD1, in the assay on MV4;11 cells (setting [2]) and with MV4;11 cells (setting [1]) was below 500 nM in each case.

Take `COc1ccc(-n2nc(NCc3cccc(N)c3)cc2-c2ccc(C#N)c(F)c2)cc1` [Example 40, 4-(3-((3-aminobenzyl)amino)-1-(4-methoxyphenyl)-1H-pyrazol-5-yl)-2-fluorobenzonitrile]: the 50% inhibitory concentration (IC50) on LSD1 is 1000 to 10000 nM; in the assay with MV4;11 cells (setting [1]), above 10000 nM.

As to `COc1ccc(-n2nc(N)cc2-c2ccc(C#N)c(F)c2)cc1` [Example 1, 4-(3-Amino-1-(4-methoxyphenyl)-1H-pyrazol-5-yl)-2-fluorobenzonitrile], the IC50 at LSD1 and in the assay on MV4;11 cells (setting [2]) was above 10000 nM each time.

These data come from patent publication US20250032454A1, “KDM1A INHIBITORS FOR THE TREATMENT OF DISEASE” (Imago Biosciences, Inc., priority 2021, published 2025).
